Experimental data published in US20250352629A1, “ADJUVANT FOR BACILLUS CALMETTE-GUERIN CANCER IMMUNOTHERAPY” (The Royal Institution for the Advancement of …, priority 2024, published 2025).
Values joined by “and” are separate entries in the source; they are usually repeats but may differ in a detail not shown here. Equal values may be shown once. “Also recorded” adds a separate entry of the source.

What was measured:
[1] = system: HSCs (LKS+ cells) and immune cells in BM and bladder; conditions: mouse, in vivo
[2] = system: MB49 cells; conditions: mouse, in vivo
[3] = system: MB49 cells; conditions: mouse, in vivo; remark: listed apart in the source
[4] = mouse, in vivo
[5] = system: B16-F10 cells; conditions: mouse, in vivo
[6] = system: bladder cancer; conditions: human, in vivo; cited from earlier work
[7] = system: MB49 cells

Compound: β-Glucan
- frequency and absolute number of neutrophils in bladder [1]: significantly increased
- frequency of lymphocytes / adaptive immune cells (CD4+ and CD8+ T cells) in bladder [1]: remained unchanged
- frequency and total cell number of neutrophils in BM ([1]; ip): increased
- tumor growth [2]: developed tumors
- increase in survival [3]: 50% and 40%
- survival [3]: 40%
- survival after neutrophil depletion [3]: 10%
- tumor growth / tumoral volume (histopathology, MRI, tumoral weight) [3]: suppressing tumoral growth; also recorded: reduced tumor growth; also recorded: significant reduction in tumor volume
- enhanced survival compared to PBS-control group ([3]; ip): 45%

Compound: Bacillus Calmette-Guérin [BCG]
- LKS+ population in BM, frequency and absolute number [1]: significant expansion
- frequency and absolute number of monocytes in BM [1]: increased
- frequency and absolute number of neutrophils in BM [1]: increased
- frequency and absolute number of neutrophils in bladder [1]: increased
- frequency and absolute numbers of dendritic cells in BM [1]: increased
- frequency and absolute numbers of dendritic cells in bladder [1]: increased
- frequency and absolute numbers of monocytes in bladder [1]: increased
- frequency and total cell numbers of NK cells in bladder [1]: increased
- frequency and total cell numbers of macrophages in bladder [1]: increased
- frequency of lymphocytes / adaptive immune cells (CD4+ and CD8+ T cells) in bladder [1]: increased
- proportions of long-term HSCs (LT-HSCs) in BM [1]: reduction
- proportions of multipotent progenitors (MPPs) in BM [1]: increases
- proportions of short-term HSCs (ST-HSCs) in BM [1]: increases
- BCG dissemination to organs [4]: reached the spleen, draining lymph nodes, and BM
- BCG elimination in urine [4]: eliminated in the urine
- BM-LKS+ population [5]: significant expansion
- efficacy of BCG treatment in bladder cancer [6]: 30-50%
- intolerance due to adverse effects [6]: about 20%
- patients experiencing relapse [6]: up to 40%
- patients unresponsive to BCG immunotherapy [6]: up to 50%
- tumor growth [2]: significantly reduced tumor growth
- increase in survival [3]: 50%
- survival [3]: 50-70% and 50%
- tumor growth / tumoral volume (histopathology, MRI, tumoral weight) [3]: substantial reduction in tumoral volume; also recorded: reduced tumor growth; also recorded: significant tumor reduction
- enhanced survival ([3]; iv): 40-50%

Compound: CC(=O)N[C@@H](CS)C(=O)O [NAC, N-Acetyl Cysteine]
- effect of ROS scavenger on cytotoxic activity of trained neutrophils [7]: abolished the cytotoxic activity
